Assay results from patent US7879344B2, “Transdermal delivery of oleocanthal for relief of inflammation” (Kimberly-Clark Worldwide, Inc., priority 2006, dated 2011).

How the values were obtained:
[1] = phenolic group of oleocanthal; carboxylic acid group of ibuprofen and similar NSAIDs; cited from earlier work
[2] = solubility in fats and oils (stated in the text, no test described); format: physicochemical; settings: "it has been discovered", no data given
Text: Traditionally, it has been difficult to administer ibuprofen and other similar NSAIDs transdermally. […] This is particularly problematic for transdermal administration, given the high concentration of lipids in the stratum corneum. Consequently, formulating a transdermal ibuprofen-containing composition that is capable of penetrating through the stratum corneum in effective amounts is difficult.
Without wishing to be bound to any particular theory, it is believed that the ability of oleocanthal to remain in a neutral state over a broad pH range contributes to the ability of oleocanthal to more readily penetrate the stratum corneum, as compared to ibuprofen and similar NSAIDs. […] This is advantageous for transdermal delivery. Since most transdermal compositions are formulated to have a pH of from about 3.5 to about 8.5, and more typically from about 5.0 to about 6.0, oleocanthal will mostly be in its neutral, non-ionized state when the transdermal composition is contacted with skin. In contrast, ibuprofen and similar NSAIDs, which contain a carboxylic acid group that may begin to ionize at a pH of about 4.0, will be all or partly in their ionized state (and thus […]) when the transdermal composition is contacted with skin. Consequently, oleocanthal penetrates the stratum corneum more readily than ibuprofen and other similar NSAIDs.

solubility in fats and oils [2] | SMILES | pH at which the ionisable group begins to ionize [1]
 | CC(C)Cc1ccc(C(C)C(=O)O)cc1 (stereo not drawn) [ibuprofen, reference compound] | about 4.0 pH
highly soluble | C/C=C(/C=O)[C@@H](CC=O)CC(=O)OCCc1ccc(O)cc1 [oleocanthal] | about 9.5 pH
